Measured values taken from patent publication US20260158031A1, “AROMATIC HETEROCYCLIC COMPOUND, PHARMACEUTICAL COMPOSITION CONTAINING THE SAME, AND USE THEREOF” (HANG ZHOU YUHONG PHARMATECH CO., LTD., priority 2021, published 2026).

What was measured:
SRBC mouse model = test: SRBC-induced delayed type hypersensitivity (DTH) in mice; format: in vivo; conditions: male Balb/c mice, 100 mg/kg by gavage once a day, day 0 to day 6, FIG. 1
Experimental: PF-06651600 was used as a positive control compound.
Drug preparation: the compound was weighed and added with a 0.5% CMC-Na solution to prepare a drug suspension (with an administration dose of 10 mg/mL).
Induction of delayed type hypersensitivity (DTH) and administration: 30 male Balb/c mice were weighed and randomly divided into 6 groups according to body weight, with 5 mice in each group. The experimental period lasted for 7 days in total. On day 0, the mice were subcutaneously injected with sheep red blood cells (SRBCs) for sensitization. From day 0, the mice were administrated with 100 mg/kg by gavage (once a day) until day 6. On day 6, SRBCs were injected into the right hind foot pad of the mice for excitation. On day 7 of the experiment, measurements were conducted, photographs were taken, and the experiment was ended.
Pharmacodynamic detection indicators of disease models: the detection and observation indicators were the degree of redness and swelling and detected thicknesses of paw pads of the mice in the model group as induced by SRBC. The thickness of the right paw was measured as the baseline before the SRBC injection excitation on day 6. At the end of the experiment […], the thickness of the right paw was measured again, and the difference in thickness of the paw before and after the second injection was calculated.
Statistical processing: experimental data was expressed as mean±standard deviation (Mean±SD). All data was statistically analyzed using a T-test. P<0.05 was considered to be statistically different.

[1] = test system: collagen-induced mouse arthritis model; test: Collagen-induced mouse arthritis model (mCIA); format: in vivo, DBA/1J mice; conditions: female DBA/1J CIA mice, 50 mg/kg once a day, FIG. 2; for arthritis scores: compared to the model group
Excerpt: Objective of Experiment: to test the immunosuppressive activity of YZ001052 in a mCIA model. PF-06651600 was used as a positive control compound.
Complete and incomplete Freund's adjuvants were mixed with a chicken type II collagen solution in equal proportions to form an emulsifier. Except for the blank control group, on Day 0, a mixture of a complete Freund's adjuvant and the chicken type II collagen solution was subcutaneously injected into the tail roots and thigh roots of the mice, with 100 μL being injected subcutaneously at the tail root of each mouse; and 50 μL being injected subcutaneously at each of the two thigh roots of each mouse (primary immunization). On day 21, the mice were subcutaneously injected with 200 μL of a mixture of an incomplete Freund's adjuvant and the chicken type II collagen solution as a booster injection (second immunization). […] Measurement of paw thickness: the thicknesses of the left and right hind feet of the mice were measured with a vernier caliper to serve as the paw swelling degree and recorded, and the detection frequency was once every 3 days.

[2] = test system: DSS-induced mouse inflammatory bowel disease model; test: DSS-induced mouse inflammatory bowel disease model; format: in vivo; conditions: female C57BL/6 mice, 5% DSS, 50 mg/kg once a day, day 8, compared with model group, FIG. 3
Experimental: Objective of Experiment: to test the immunosuppressive activity of YZ001052 in a DSS-induced mouse inflammatory bowel disease model. PF-06651600 was used as a positive control compound.
50 g of DSS was weighed, added with 1,000 mL of sterile water, formulated into a 5% DSS solution, and filtered with a 0.22 μm filter membrane. From day 0, the blank group was given drinking water without DSS, and the other experimental groups were given drinking water containing 5% DSS. All mice were sacrificed on day 8. After the experiment was ended, the colorectum was collected, and photographed, and its length was measured for statistical analysis.

[3] = test system: radiation-induced lung injury mouse model; test: Mouse model of acute radiation-induced lung injury; format: in vivo; conditions: female C57BL/6 mice, 22.5 Gy whole lung irradiation, 30 mg/kg q.d, 3 weeks after modeling
Experimental: 18 female C57BL/6 mice were randomly divided into 3 groups, namely a blank control group, a group treated with irradiation alone, and a group intervened with irradiation+drug YZ001052 (30 mg/kg q.d), with 6 mice in each group.
The mice were anesthetized by intraperitoneal injection of 1% pentobarbital sodium, and were subjected to a single whole lung irradiation at 22.5 Gy, with 220 KV of X-rays by using a small animal radiation research platform (SARRP). After the irradiation was completed, the mice were fed routinely.
3 weeks after modeling, the mice were anesthetized and dissected. The lung tissue was exposed, the left lung was ligated, an open tracheotomy was performed, the lung was lavaged with cold PBS, and the bronchoalveolar lavage fluid (BALF) was collected and subjected to refrigerated centrifugation at 4° C.
The supernatant was collected, and detected for the content of the inflammatory factor TNF-α by ELISA.
The cell pellet of the alveolar lavage fluid was resuspended in 200 μL PBS and used for counting of white blood cells (WBCs).

JAK3 kinase = biological target: T1, JAK3 kinase (Homo sapiens, UniProt P52333); test: Mobility shift assay, in vitro JAK3 kinase inhibitory activity; format: biochemical
T1 sequence (P52333 1-1124): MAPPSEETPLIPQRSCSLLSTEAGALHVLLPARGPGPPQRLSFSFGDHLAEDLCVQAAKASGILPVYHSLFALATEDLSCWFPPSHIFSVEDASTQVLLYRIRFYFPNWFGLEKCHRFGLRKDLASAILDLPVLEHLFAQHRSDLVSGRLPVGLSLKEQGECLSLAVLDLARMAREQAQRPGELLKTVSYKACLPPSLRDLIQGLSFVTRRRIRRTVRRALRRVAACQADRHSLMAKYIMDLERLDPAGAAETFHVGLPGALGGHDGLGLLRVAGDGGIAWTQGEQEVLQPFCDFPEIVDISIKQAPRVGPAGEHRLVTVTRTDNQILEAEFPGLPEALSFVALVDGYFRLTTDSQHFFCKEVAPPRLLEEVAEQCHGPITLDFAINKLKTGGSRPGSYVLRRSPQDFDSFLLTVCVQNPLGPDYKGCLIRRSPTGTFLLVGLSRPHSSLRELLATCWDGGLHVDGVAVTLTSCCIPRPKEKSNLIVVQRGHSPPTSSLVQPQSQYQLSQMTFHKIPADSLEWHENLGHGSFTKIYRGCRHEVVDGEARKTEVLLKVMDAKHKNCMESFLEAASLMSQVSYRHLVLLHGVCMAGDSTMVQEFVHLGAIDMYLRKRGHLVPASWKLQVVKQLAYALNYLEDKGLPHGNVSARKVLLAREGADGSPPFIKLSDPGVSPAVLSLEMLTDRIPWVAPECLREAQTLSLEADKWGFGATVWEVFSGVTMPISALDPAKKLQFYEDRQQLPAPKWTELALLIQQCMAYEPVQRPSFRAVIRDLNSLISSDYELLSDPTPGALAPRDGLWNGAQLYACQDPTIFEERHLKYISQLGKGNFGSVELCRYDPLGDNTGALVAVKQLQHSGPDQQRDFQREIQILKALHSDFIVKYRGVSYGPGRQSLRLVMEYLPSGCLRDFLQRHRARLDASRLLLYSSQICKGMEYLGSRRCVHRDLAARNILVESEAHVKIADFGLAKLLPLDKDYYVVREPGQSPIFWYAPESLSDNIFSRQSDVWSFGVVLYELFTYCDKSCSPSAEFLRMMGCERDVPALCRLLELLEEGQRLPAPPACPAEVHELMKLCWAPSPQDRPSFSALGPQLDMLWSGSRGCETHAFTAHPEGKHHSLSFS
Experimental: A Mobility shift assay was adopted to detect compounds to be tested (see list below) for in vitro inhibitory activity on the enzyme activity of JAK3 kinase.
The compound was dissolved in 100% DMSO to formulate a 10 mM stock solution, which was stored in a −20° C. refrigerator with protection from light.
The compounds were diluted with gradients into solutions with a final concentration of 100 times in a 384-well plate. Then 250 nL was transferred to a 384 reaction plate with Echo550 for later use. 250 nL of 100% DMSO was added into the negative control well and the positive control well respectively. • (3) A kinase solution with a final concentration of 2.5 times was formulated with the 1× Kinase buffer. • (4) The compound wells and the positive control wells were added with 10 μL of the kinase solution with the final concentration of 2.5 times respectively; the negative control wells were added with 10 μL of the 1× Kinase buffer. • (5) The wells were centrifuged at 1,000 rpm for 30 seconds, mixed well by shaking, and then incubated at room temperature for 10 minutes. • (6) A mixed solution of ATP and Kinase substrate 22 with a final concentration of 25/15 times was formulated with a 1× Kinase buffer. • (7) The compound wells, positive control wells and negative control wells of the 384 reaction plate were respectively added with 15 μL of a mixed solution of ATP and the substrate at the final concentration of 25/15 times to start the reaction. • (8) The 384-well plate was centrifuged at 1,000 rpm for 30 seconds, mixed well by shaking, and then incubated at room temperature for 30 minutes. • (9) 30 μL of a detection termination solution was added to stop the kinase reaction, centrifuged at 1,000 rpm for 30 seconds, and mixed well by shaking. • (10) The conversion rate was read with Caliper EZ Reader.
% Inhibition=(Conversion %_max−Conversion %_sample)/(Conversion %_max−Conversion %_min)×100 (1) Calculation Equation
Among them: Conversion %_sample was the conversion rate reading of the sample; Conversion %_min was the mean value of the negative control wells, representing the conversion rate reading of the wells without enzyme activity; Conversion % max was the mean value of the positive control wells, representing the conversion rate reading of the wells without compound inhibition; and % Inhibition represented the percentage inhibition rate.
• by taking the log value of concentration as the X axis and taking the percent inhibition rate as the Y axis, a dose-response curve is fitted by adopting the log (inhibitor) vs. response-Variable slope of the analysis software GraphPad Prism 5, so as to obtain the IC50 value of each compound on the enzyme activity. The calculation equation was Y=Bottom+ (Top−Bottom)/(1+10^((Log IC50−X)*HillSlope)).

JAK1 = JAK1 (Homo sapiens, UniProt P23458); test: Kinase selectivity experiment, mobility shift assay, JAK1; format: biochemical; conditions: Example 137
Chain of JAK1 (P23458 whole entry, species assumed): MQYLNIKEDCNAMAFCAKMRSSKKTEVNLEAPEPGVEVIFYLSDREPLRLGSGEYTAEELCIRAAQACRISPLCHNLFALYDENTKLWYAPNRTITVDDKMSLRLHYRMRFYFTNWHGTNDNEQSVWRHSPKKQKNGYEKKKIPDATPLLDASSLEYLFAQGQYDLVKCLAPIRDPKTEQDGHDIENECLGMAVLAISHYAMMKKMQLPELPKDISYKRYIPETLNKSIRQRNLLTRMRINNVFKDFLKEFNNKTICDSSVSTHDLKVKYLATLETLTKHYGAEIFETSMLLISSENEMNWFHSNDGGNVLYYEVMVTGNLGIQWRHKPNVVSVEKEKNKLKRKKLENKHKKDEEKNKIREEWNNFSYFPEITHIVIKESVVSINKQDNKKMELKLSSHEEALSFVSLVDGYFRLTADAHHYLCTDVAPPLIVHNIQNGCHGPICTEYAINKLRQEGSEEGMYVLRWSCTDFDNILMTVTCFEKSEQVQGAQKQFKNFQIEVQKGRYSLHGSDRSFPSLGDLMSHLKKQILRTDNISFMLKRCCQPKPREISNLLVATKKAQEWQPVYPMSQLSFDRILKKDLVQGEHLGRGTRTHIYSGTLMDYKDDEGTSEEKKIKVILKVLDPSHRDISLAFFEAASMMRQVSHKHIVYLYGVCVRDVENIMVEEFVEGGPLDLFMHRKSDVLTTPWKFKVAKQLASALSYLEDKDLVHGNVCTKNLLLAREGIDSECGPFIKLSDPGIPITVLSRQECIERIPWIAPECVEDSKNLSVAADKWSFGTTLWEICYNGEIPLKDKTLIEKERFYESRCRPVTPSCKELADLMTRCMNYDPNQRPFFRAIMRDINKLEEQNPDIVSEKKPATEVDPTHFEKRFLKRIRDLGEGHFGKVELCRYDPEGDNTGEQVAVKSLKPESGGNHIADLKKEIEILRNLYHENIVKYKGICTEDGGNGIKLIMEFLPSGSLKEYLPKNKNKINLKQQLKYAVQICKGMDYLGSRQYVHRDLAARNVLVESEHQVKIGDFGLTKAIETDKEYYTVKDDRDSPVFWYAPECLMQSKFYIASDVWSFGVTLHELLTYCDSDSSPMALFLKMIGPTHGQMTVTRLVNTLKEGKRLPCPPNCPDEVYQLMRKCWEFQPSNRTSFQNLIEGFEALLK
Experimental: (§1) The compounds were diluted with gradients into solutions with a final concentration of 100 times in a 384-well plate. Then 250 nL was transferred to a 384 reaction plate with Echo550 for later use. […]

JAK2 = JAK2 (Homo sapiens, UniProt O60674); test: Kinase selectivity experiment, mobility shift assay, JAK2; format: biochemical; conditions: Example 137
Chain of JAK2 (O60674 whole entry, species assumed): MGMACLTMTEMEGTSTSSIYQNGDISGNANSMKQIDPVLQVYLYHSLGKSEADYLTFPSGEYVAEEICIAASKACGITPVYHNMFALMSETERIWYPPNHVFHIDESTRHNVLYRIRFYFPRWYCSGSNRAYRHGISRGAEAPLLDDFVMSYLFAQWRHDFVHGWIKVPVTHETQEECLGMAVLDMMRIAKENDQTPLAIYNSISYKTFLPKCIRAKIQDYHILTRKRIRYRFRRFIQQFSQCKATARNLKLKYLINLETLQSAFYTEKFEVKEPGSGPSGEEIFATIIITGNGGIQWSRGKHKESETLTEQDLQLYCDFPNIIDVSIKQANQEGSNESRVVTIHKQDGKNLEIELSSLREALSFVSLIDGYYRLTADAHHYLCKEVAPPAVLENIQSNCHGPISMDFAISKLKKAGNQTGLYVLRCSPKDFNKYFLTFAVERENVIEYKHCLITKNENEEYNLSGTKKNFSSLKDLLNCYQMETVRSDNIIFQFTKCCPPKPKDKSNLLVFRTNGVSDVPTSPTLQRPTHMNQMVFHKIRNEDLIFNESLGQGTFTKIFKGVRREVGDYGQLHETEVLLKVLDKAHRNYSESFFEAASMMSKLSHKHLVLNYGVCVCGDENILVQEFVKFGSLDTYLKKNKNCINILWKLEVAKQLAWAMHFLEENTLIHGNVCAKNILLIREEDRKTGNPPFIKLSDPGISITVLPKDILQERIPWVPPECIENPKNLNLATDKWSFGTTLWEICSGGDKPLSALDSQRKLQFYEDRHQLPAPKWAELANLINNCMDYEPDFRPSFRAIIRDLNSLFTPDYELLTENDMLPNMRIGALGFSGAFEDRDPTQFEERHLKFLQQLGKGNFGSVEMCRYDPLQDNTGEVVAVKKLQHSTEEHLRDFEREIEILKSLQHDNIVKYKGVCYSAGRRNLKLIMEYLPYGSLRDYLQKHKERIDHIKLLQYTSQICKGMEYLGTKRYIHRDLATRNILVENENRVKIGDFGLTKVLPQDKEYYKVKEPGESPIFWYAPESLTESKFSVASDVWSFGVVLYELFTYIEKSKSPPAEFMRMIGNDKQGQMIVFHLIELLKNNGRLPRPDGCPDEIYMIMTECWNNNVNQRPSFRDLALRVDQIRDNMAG
Experimental: as §1

TYK2 = TYK2 (Homo sapiens, UniProt P29597); test: Kinase selectivity experiment, mobility shift assay, TYK2; format: biochemical; conditions: Example 137
Chain of TYK2 (P29597 whole entry, species assumed): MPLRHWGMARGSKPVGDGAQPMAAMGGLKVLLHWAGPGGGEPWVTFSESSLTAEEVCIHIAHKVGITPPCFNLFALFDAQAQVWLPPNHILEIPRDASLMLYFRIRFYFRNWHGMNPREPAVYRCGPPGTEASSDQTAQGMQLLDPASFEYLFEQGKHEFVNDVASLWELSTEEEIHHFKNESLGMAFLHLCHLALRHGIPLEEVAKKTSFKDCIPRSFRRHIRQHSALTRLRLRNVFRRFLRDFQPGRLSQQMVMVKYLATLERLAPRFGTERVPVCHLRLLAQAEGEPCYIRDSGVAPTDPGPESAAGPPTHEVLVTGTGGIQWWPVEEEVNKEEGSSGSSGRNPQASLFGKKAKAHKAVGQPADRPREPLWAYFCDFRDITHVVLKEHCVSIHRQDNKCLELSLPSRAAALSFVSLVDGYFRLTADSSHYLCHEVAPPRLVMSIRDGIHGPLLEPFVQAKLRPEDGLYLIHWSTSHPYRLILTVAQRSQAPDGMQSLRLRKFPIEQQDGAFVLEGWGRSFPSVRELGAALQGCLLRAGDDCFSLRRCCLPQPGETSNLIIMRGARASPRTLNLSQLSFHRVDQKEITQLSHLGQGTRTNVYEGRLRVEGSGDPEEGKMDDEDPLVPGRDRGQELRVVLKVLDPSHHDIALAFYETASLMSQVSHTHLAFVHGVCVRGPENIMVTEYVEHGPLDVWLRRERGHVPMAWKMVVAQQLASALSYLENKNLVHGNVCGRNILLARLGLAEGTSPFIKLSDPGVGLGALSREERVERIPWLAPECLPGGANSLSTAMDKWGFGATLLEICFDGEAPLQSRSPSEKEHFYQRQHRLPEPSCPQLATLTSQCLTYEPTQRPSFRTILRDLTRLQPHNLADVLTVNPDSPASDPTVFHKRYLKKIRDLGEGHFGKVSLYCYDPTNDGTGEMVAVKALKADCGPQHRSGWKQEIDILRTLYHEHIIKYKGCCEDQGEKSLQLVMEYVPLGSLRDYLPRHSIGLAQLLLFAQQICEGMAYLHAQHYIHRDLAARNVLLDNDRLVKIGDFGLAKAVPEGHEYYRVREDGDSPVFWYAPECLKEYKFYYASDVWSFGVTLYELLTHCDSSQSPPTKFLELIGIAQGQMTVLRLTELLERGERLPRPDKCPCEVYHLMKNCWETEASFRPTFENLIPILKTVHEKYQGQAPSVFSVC
Experimental: as §1

[4] = test system: p-STAT5 under stimulation with IL-15 in PBMCs; test: IL-15 stimulated hPBMC p-STAT5 ELISA; format: cell-based; conditions: Homo sapiens, PBMC, 45 min compound, 30 min IL-15, ELISA
Experimental: Based on the mechanism of the JAK-STAT pathway, the cytokine IL-15 was adopted to stimulate hPBMC cells, and the downstream STAT5 phosphorylation level was taken as a detection indicator to evaluate the effect of the compound on the JAK-STAT pathway.
• 1. Seeding plate for PBMC cell counting: 90 μL of PBMCs were seeded in a 96-well plate (PBMC cell density: 80,000/well). • 2. Treatment of compound to be tested: after the cells were seeded on the plate, administration treatment was performed immediately. The drug to be tested was 5 μL/well (with final concentration of 1, 0.5, 0.1, 0.05, 0.01, and 0.005 μM), and the plate was incubated in a 37° C. incubator for 45 min. • 3. Stimulation with cytokine IL-15: the cells were stimulated with 5 μL of IL-15 and incubated at 37° C. for 30 min. • 4. Protein sample collection: the cells were collected in a centrifuge tube and centrifuged for 5 min. The supernatant was discarded after the centrifuging, and the cells were lysed with 1× Cell Extraction Buffer PTR. • 5. p-STAT5 detection: detection was conducted according to the requirements of a ELISA kit.
Experimental results: IC50 values of compounds on p-STAT5 under stimulation with IL-15 in PBMCs

[5] = mobility shift assay, Example 136

Compound	IC50 (JAK1) [µM]	IC50 (JAK2) [µM]	IC50 (TYK2) [µM]	IC50 (JAK3 kinase; [5]) [nM]	immunosuppressive effect on SRBC-induced delayed type hypersensitivity (right paw thickness) (SRBC mouse model)	swelling of the paws [1]	arthritis scores [1]	IC50 [4] [nM]	other results
C=CC(=O)N1CCc2c(c(-c3ccnc4[nH]ccc34)nn2C)C1 [YZ001052]	–	–	–	–	significant immunosuppressive effects	improved to varying degrees	significantly reduced	–	length of the colorectum [2]: significantly increased; TNF-α level in the alveolar lavage fluid ([3]; ELISA, FIG. 4): good inhibitory effect; number of white blood cells (inflammatory cell infiltrates) in the alveolar lavage fluid ([3]; FIG. 5): significantly reduce
C[C@@H]1Cn2ncc(-c3ccnc4[nH]ccc34)c2CN1C(=O)/C=C/CN(C)C [YZ001005]	> 10	> 10	> 10	–	–	–	–	–	IC50 (JAK3 kinase; selectivity table, Example 137): 16 nM
C=CC(=O)N1C[C@H](Nc2ncnc3[nH]ccc23)CC[C@@H]1C [PF-06651600, reference compound]	–	–	–	–	–	improved to varying degrees	significantly reduced	85	–
C=CC(=O)N1Cc2c(-c3ccnc4[nH]ccc34)cnn2C[C@H]1C [YZ001001]	> 10	> 10	> 10	–	–	–	–	–	–

More lines, main results first:

IC50 (JAK1) [µM]	IC50 (JAK2) [µM]	IC50 (TYK2) [µM]	IC50 (JAK3 kinase; [5]) [nM]	Compound	immunosuppressive effect on SRBC-induced delayed type hypersensitivity (right paw thickness) (SRBC mouse model)	swelling of the paws [1]	arthritis scores [1]	IC50 [4] [nM]	other results
–	–	–	1.2	C=C(F)C(=O)N1Cc2c(-c3ccnc4[nH]ccc34)cnn2C[C@H]1CCS(C)(=O)=O [YZ001075]	–	–	–	31.7	–
–	–	–	0.7	C=CC(=O)N1CCc2[nH]nc(-c3ccnc4[nH]ccc34)c2C1 [YZ001065]	significant immunosuppressive effects	–	–	26.3	–
